Test results taken from patent publication US20230226218A1, “Red Cell Extracellular Vesicles (RCEVs) Containing Cargoes and Methods of Use and Production Thereof” (ERYTECH PHARMA, priority 2020, published 2023).

Legend:
Assay type in all cases: cell-based, human
THP1-derived macrophages = experiment: pHrodo in vitro phagocytosis assay, THP1-derived macrophages; settings: 25k EVs/cell, STINGa 0.14 μg/ml, 48 h, FIG. 18-19
From the text: To test the ability of the RCEVs and CLRCEVs to be taken up by immune cells, we developed an in vitro phagocytosis protocol based upon the THP1 monocyte cell line. Briefly, we determined THP1 cells could be effectively differentiated to become more macrophage-like by treating them with PMA for 3 days followed by 4 days of resting in culture media without PMA. Thereafter, we applied various test substances (e.g. EVs-STINGa, EVs-proRBC, free STINGa, each+/=a reporter dye) to either the undifferentiated or differentiated THP1 cells and observed the phagocytosis activity.
As shown schematically in FIG. 12, pHrodo®-labeled cells or vesicles (e.g. EVs) are added to phagocytic cells, but while they are outside of the cells, there is little to no fluorescence at the approximately pH 7.4 extracellular environment. When the relevant cellular receptors are engaged, a phagocytic cup forms around the labeled cells or vesicles. Finally, an acidic phagosome forms, causing the pHrodo® to emit fluorescence.
As an initial study, the THP1 cells were seeded as follows: 24,000, 34,000, and 44,000 cells/well. […] Labeled EVs-STINGa were added to differentiated THP1 cells and incubated for 12 h and the […] device was set to read the wells every 30 minutes. […] In these greyscale micrograms, the original red fluorescence appears black inside the cells. […]

STING = experiment: THP1-Dual IRF-Lucia luciferase reporter assay (QUANTI-Luc); settings: 0.5, 1.0, 1.5, 2.0 μg/mL STINGa; 100k cells/well; 24 h
Procedure: First, indirect measurements were made using the THP1-Dual™ cells (InvivoGen), which are derived from the human THP-1 monocyte cell line and contain a stably integrated inducible IRF-Lucia luciferase reporter construct that expresses luciferase when STING is activated (e.g. by STING agonists including CDN).
Briefly, 100k cells/well were seeded and then treated with different concentrations of free STING agonist (“STINGa”) (0.5, 1.0, 1.5, and 2.0 μg/mL), EVs-STINGa (also referred to as “ERY-STINGa-CLRCEV” or “STINGa-CLRCEV” throughout) (0.5, 1.0, 1.5, and 2.0 μg/mL, carried by the indicated amounts of EVs), and EVs-proRBC. After 24 h, the supernatants were recovered and subjected to QUANTI-Luc™ detection according to the manufacturer's instructions. […] If so, it is envisioned that the in vivo efficacy of EV-STINGa (or any EV-[immune modulator] for that matter) will depend upon the capacity of target cells for taking up the CLRCEVs. It is further envisioned that if the THP1-Dual monocytes had been differentiated into macrophages, the highest dose of EVs-STINGa would have elicited at least as much luciferase activity as the highest dose of free STINGa.

THP1 macrophages = experiment: Cytokine release by THP1 macrophages (BioLegend bead kit, flow cytometry)
Procedure: In a second approach, the levels of IL-1b, IL-6, TNF-α, and IFN-β were measured after THP1 macrophages were incubated with varying concentrations of STINGa, STINGa-CLRCEVs, or proRBC EVs.
[…] Supernatants were collected at 6 h and 24 h after stimulation and frozen until quantification. Supernatants were analyzed by flow cytometry using the BioLegend kit with four (4) different beads recognizing IL-1b, IL-6, TNF-α, IFN-β.
It has been reported that vesicles from packed red blood cell (pRBC) units bind to monocytes and induce proinflammatory cytokines, boosting T-cell responses in vitro (Danesh et al 2013). To test whether CLRCEVs and/or RCEVs would likewise induce these cytokines, THP1 macrophages were grown and treated as before and the levels of IL-6, IL-1b, and TNF-α were measured.

**Q.** How did the “red fluorescence (uptake)” value (THP1-derived macrophages) turn out when `Nc1ncnc2c1ncn2[C@@H]1O[C@@H]2COP(=O)([S-])O[C@@H]3[C@H](O)[C@@H](COP([O-])(=S)O[C@H]2[C@H]1O)O[C@H]3n1cnc2c(N)ncnc21.[Na+].[Na+]` (stereo partly drawn) [free STINGa, ADU-S100] was run?
**A.** neither free STINGa+pHrodo nor pHrodo alone produced appreciable fluorescence

**Q.** What about the “luciferase activity (IRF pathway activation)” value (STING) of the same molecule?
**A.** a clear dose response effect was observed

**Q.** What about the IFN-β (THP1 macrophages; 3 μg/ml STINGa (EVs 7.6E10 EVs/mL), time not stated) of the same molecule?
**A.** 140 pg/mL

**Q.** And the IFN-β (THP1 macrophages; 8 μg/mL STINGa (EVs 2.0E11 EVs/mL), 6 h)?
**A.** 400 pg/mL

**Q.** And the IFN-β (THP1 macrophages; 8 μg/mL STINGa (EVs 2.0E11 EVs/mL), 24 h)?
**A.** 318 pg/mL

**Q.** And the IL-6 (THP1 macrophages; 2.5E+10 EVs/mL, STINGa 1 μg/ml)?
**A.** 25 pg/mL

**Q.** And the IL-6 (THP1 macrophages; 5.0E10 EVs/mL, STINGa 2 μg/ml)?
**A.** 38 pg/mL

**Q.** What about the “IL-1b release” value (THP1 macrophages; 8, 2 or 1 μg/mL, 6 h and 24 h) of the same molecule?
**A.** did not induce the release of IL-1b

**Q.** And the IL-6 (THP1 macrophages; 24 h, 2.0E11 EVs/mL, STINGa 8 μg/ml)?
**A.** 453 pg/mL
